From patent US9481885B2, “Methods and compositions related to miR-21 and miR-29a, exosome inhibition, and cancer metastasis” (Ohio State Innovation Foundation, priority 2011, dated 2016)

Molecular target: T1, human TLR8 (Homo sapiens, UniProt Q9NR97)
T1 construct: host or cells: HEK-Blue TLR8 293 (TLR8-HEK-293)
T1 sequence (Q9NR97 27-1041): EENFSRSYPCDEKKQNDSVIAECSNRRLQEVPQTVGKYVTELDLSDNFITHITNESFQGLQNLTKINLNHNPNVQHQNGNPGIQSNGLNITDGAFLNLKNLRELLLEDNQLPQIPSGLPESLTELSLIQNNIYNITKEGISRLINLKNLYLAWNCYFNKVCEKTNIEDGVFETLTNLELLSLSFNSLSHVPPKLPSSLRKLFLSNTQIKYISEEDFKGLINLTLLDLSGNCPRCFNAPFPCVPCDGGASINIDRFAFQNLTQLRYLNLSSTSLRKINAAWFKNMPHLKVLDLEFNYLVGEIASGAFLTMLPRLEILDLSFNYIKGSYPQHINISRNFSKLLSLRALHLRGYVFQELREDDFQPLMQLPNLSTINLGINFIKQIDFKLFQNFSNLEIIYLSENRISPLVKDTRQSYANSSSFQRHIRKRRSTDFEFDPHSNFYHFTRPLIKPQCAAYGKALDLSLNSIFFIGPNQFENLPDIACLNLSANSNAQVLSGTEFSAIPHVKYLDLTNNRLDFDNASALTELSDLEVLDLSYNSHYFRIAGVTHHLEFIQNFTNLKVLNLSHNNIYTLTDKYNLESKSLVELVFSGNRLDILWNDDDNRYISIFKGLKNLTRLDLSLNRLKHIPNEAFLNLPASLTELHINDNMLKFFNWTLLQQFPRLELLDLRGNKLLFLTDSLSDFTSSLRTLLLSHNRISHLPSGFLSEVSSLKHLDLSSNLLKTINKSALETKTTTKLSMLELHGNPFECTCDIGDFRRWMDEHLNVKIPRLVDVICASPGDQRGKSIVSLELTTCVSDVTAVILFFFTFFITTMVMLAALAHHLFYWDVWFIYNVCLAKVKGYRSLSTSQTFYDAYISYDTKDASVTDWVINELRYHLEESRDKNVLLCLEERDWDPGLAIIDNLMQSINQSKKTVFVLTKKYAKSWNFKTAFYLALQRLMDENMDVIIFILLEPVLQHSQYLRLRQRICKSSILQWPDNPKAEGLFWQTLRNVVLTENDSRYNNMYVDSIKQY
Test: NF-κB reporter assay (QUANTI-Blue) in TLR8-HEK-293 cells
Assay type: cell-based
Details: Dotap formulations of miRNA
Protocol: To investigate whether miRNA-induced activation of TLRs also occurs in human cells, an NF-κB reporter assay was performed in HEK-293 cells. NF-κB, a transcription factor modulating the expression of several cytokine genes, is activated by several TLRs, including the only ssRNA-binding human TLRs, TLR7 and TLR8. Therefore, we treated HEK-293 cells expressing human TLR7 or TLR8 (hereafter, TLR7- and TLR8-HEK-293 cells, respectively) with Dotap alone or with Dotap formulations of miR-16, -21, -29a, or -147 and performed an NF-κB reporter assay. As positive controls Gardiquimod and ssRNA40 were used, specific agonists of TLR7 and TLR8, respectively. […] To confirm this conclusion, transfected were TLR8-HEK-293 cells with a plasmid encoding a dominant negative form of TLR8 (TLR8DN) and treated these cells with the miRNAs of interest. In TLR8DN cells, the activation of NF-κB by miR-21 and miR-29a was abolished (FIG. 3F). […] NF-κB activity was assessed by QUANTI-Blue Assay (Invivogen). […] Levels of SEAP can be easily determined with QUANTI-Blue, a detection medium that turns purple/blue in the presence of alkaline phosphatase. […] The plate was then incubated at 37° C. for 1-3 h and SEAP levels were determined by reading the plate with a spectrophotometer at 620-655 nm (SpectraMax, Molecular Devices).

In the case of “miR-147: synthetic mature miRNA (SEQ ID NO: 3), sequence similar to RNA33, Dotap formulation (GUGUGUGGAAAUGCUUCUGC; DOTAP formulation, further chemistry not given here)”, the NF-κB activation is reported as “activated”.
